The source of these data is patent US12329755B2, “Bromodomain inhibitors to target therapy-resistant cancer” (University of Tennessee Research Foundation, priority 2019, dated 2025).

The test system of test [1] is LN229 TMZ-resistant glioma cell line. Briefly: IncuCyte live cell imaging proliferation assay. The format is cell-based. On the procedure: FIG. 2A is a graph showing relative growth of temozolomide (TMZ)-resistant glioma cells (LN229 cells) alone (control); after treatment with 100 micromolar (μM) TMZ; after treatment with a Brahma-related gene-1 bromodomain inhibitor (BRI), PFI-3 (1 μM); or after treatment with both TMZ and PFI-3 (combined).
FIG. 2B is a graph showing relative growth of temozolomide (TMZ)-resistant glioma cells (LN229 cells) alone (control); after treatment with 100 micromolar (μM) TMZ; after treatment with a Brahma-related gene-1 bromodomain inhibitor (BRI), IV-073 (1 μM); or after treatment with both TMZ and IV-073 (combined).
FIG. 2C is a graph showing relative growth of LN229 Temozolomide (TMZ)-resistant glioma cells alone (control); after treatment with 100 micromolar (μM) TMZ; after treatment with a Brahma-related gene-1 bromodomain inhibitor (BRI), IV-077 (1 μM); or after treatment with both TMZ and IV-077 (combined).
FIG. 2D is a graph showing relative growth of LN229 Temozolomide (TMZ)-resistant glioma cells alone (control); after treatment with 100 micromolar (μM) TMZ; after treatment with a Brahma-related gene-1 bromodomain inhibitor (BRI), IV-085 (1 μM); or after treatment with both TMZ and IV-085 (combined).
To determine whether PFI-3 (also called YH-IV-081) and its analogs (referred to herein as “PAs”) enhanced TMZ sensitivity IncuCyte live cell imaging proliferation assays (high throughput system) were performed with the LN229 TMZ-resistant glioma cell line.

Test [2] deals with T1, GFP-tagged bromodomain of BRG1 (GFP-BRG1 BRD) (Homo sapiens, UniProt P51532).
T1 construct: a fluorescently tagged bromodomain of BRG1 expressed in MT330 GBM cells; expressed in transfected cells; host or cells: MT330 GBM cells
Briefly: nuclear localization of fluorescently tagged BRG1 bromodomain in MT330 GBM cells. Format: cell-based. The settings on record: PFI-3 10 or 30 μM; IV-073 5, 10 or 30 μM; compared to DMSO. An excerpt:
FIG. 4 is a series of fluorescence microscopy images showing the effects of Brahma-related gene-1 bromodomain inhibitors (BRIs) on the nuclear localization of a green fluorescent protein (GFP)-tagged bromodomain of Brahma-related gene-1 (GFP-BRG1 BRD).
The effects of PFI-3 and its analogs on the nuclear localization of a fluorescently tagged bromodomain of BRG1 expressed in MT330 GBM cells was studied. In the control samples, the fluorescent bromodomain is localized to the nucleus. However, an inhibitor displaces it from the nucleus and the fluorescence signal markedly decreases because it is degraded in the cytoplasm.

Test [3] relates to GBM cells. The experiment in a line: survival of mice after intracranial injection of GBM cells. The conditions noted are these: combination with TMZ, intraperitoneal, 10 mg/kg body weight. Format: in vivo. The procedure: FIG. 6 is a graph showing the survival curves (percent survival versus days after treatment) of mice after intracranial injection of glioblastoma (GBM) cells and intraperitoneal injection of temozolomide (TMZ) or combinations of TMZ and a Brahma-related gene-1 bromodomain inhibitors (BRIs): PFI-3 or one of the presently disclosed PFI-3 analogs (PAs) IV-073 or IV-085. Five mice per group were treated with TMZ with or without the BRI (10 milligrams per kilogram (mg/kg) body weight.
TMZ with or without a BRI was also tested in mice after intercranial injection of GBM cells.

In test [4] the test system is GBM cells. Briefly: overall statements on GBM cell death and sensitization to TMZ. Format: cell-based. The text has this: The syntheses of two exemplary PA BRIs, referred to herein as YH-IV-073 (or IV-073), and YH-IV-077 (or IV-077), as well as of PFI-3 (also referred to herein as YH-IV-081), are shown in Scheme 2, below. As shown in Scheme 2, commercially available tert-butyloxycarbonyl (BOC)-protected amine 1 is contacted with 2-bromopyridine (2) to form intermediate 3. The protecting group can be removed (e.g., via hydrolysis) to give the corresponding amine 4. Compound 4 can be coupled with a carboxylic acid (5, 6, or 7) to afford target YH-IV-073, YH-IV-077 and YH-IV-081, respectively. […] These analogs will provide greater insight into the importance of substitution of the A ring.
The synthetic route shown in Scheme 3, below, was used to synthesize new analogs with different substituents in the 2-position of the A-ring, such as YH-IV-085. As shown in Scheme 3, a commercially available 1-phenylprop-2-yn-1-one (e.g., 8 or 9) can be reacted with BOC-protected amine compound 1 to afford a BOC-protected intermediate (e.g., 10 or 11), which can be hydrolyzed to provide corresponding deprotected intermediate (12 or 13). The intermediates can be coupled with the 2-bromopyridine (2) to yield target compounds (e.g., 14 or YH-IV-085), respectively. YH-IV-085 is believed to be the first PFI-3 analog prepared without a 2-hydroxy moiety in the A-ring.

The test system of a further test is X16 BTICs. The conditions noted are these: cited from earlier work.
For another test, the system named is X10 BTICs. The settings on record: cited from earlier work.
Test [5] has as its system cancer cell lines (lung, synovial sarcoma, leukemia, and rhabdoid tumor cells). The conditions noted are these: panel of cancer cell lines; cited from earlier work.
The next test deals with BTICs. The conditions noted are these: cited from earlier work.
The next test has as its system embryonic stem cell. The conditions noted are these: cited from earlier work.

T1 sequence (P51532 1453-1564 limits assumed): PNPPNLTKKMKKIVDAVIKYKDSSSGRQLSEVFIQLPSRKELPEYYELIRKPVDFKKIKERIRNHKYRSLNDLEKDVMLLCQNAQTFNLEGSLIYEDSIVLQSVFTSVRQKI

`O=C(/C=C/N1C[C@H]2C[C@@H]1CN2c1ccccn1)c1ccccc1O` [PFI-3, (E)-1-(2-hydroxyphenyl)-3-((1R,4R)-5-(pyridin-2-yl)-2,5-diazabicyclo[2.2.1]heptan-2-yl)prop-2-en-1-one]: the “sensitization to TMZ” value in test [1] (BRI 1 μM combined with 100 μM TMZ) is listed as “potently sensitized”. In [1] (BRI alone (1 μM)), the “effect on cell growth” value was “relatively minor effects on cell growth”. Besides, in test [2], the “displacement of the BRG1 bromodomain from the nucleus” value was “displaces the BRG1 bromodomain from the nucleus”. The animal survival result with GBM cells [3] is “enhanced animal survival”. The “sensitizing GBM cells to DNA alkylation by TMZ” value with GBM cells [4] (also in cells resistant to DNA alkylation agents) is listed as “capable of sensitizing GBM cells”. The GBM cell death entry with GBM cells [4] (used alone) was “do not cause GBM cell death”. In addition, the “sensitization to Carmustine” value is “sensitized” in the test with X16 BTICs (X16 BTICs, PFI-3 treatment) and “sensitized” in the test on X10 BTICs (X10 BTICs, PFI-3 treatment). Also, the “effect on X16 BTIC proliferation” value in the test on X16 BTICs (combination of TMZ and PFI-3, versus either agent alone) was “markedly greater effect on X16 BTIC proliferation than either agent alone”. In the test with X10 BTICs (combination of PFI-3 and TMZ), the “effect on X10 BTIC proliferation” value is given as “marked effect on X10 BTIC proliferation”. Also, the proliferation or tumorgenicity result in [5] is reported as “not to inhibit the proliferation or tumorgenicity”. Further, the “effect on BTIC proliferation” value in the test with BTICs (PFI-3 alone) is “little effect on BTIC proliferation”. In addition, in the test on BTICs, the “stemness of BTICs” value is reported as “inhibits the stemness of BTICs”. Also, the “sensitization of BTICs to DNA alkylating agents” value with BTICs (in vitro) is recorded as “sensitizes BTICs to DNA alkylating agents”. Further, the “embryonic stem cell phenotype” value with embryonic stem cell is reported as “inhibits the embryonic stem cell phenotype”.
